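Cells were grown in 96-well plates and exposed to each compound for 48 hours at five concentrations; endpoints were interpolated linearly between bracketing concentrations, or set to the highest concentration if not reached. At the GI50, growth is halved.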 Active and inactive are the calls of the source. No stated cut-off is given here; in the data, active = GI50 up to about 1.1 µM and inactive = higher.
Tests used:
Test in all cases: inhibition of tumour cell growth, NCI panel, 48 h
A498 = tested on: A498
BT-549 = tested on: BT-549
COLO 205 = tested on: COLO 205
HCT-116 = tested on: HCT-116
HOP-62 = tested on: HOP-62
HOP-92 = tested on: HOP-92
IGROV-1 = tested on: IGROV-1
K562 = tested on: K562
M14 = tested on: M14
MCF7 = tested on: MCF7
MDA-MB-231 = tested on: MDA-MB-231
Malme-3M = tested on: Malme-3M
OVCAR-5 = tested on: OVCAR-5
PC-3 = tested on: PC-3
RPMI-8226 = tested on: RPMI-8226
SK-MEL-28 = tested on: SK-MEL-28
SR = tested on: SR
SW-620 = tested on: SW-620
U-251 = tested on: U-251

Structure (SMILES)	GI50 (A498)	GI50 (BT-549)	GI50 (COLO 205)	GI50 (HCT-116)	GI50 (HOP-62)	GI50 (HOP-92)	GI50 (IGROV-1)	GI50 (K562)	GI50 (M14)	GI50 (MCF7)	GI50 (MDA-MB-231)	GI50 (Malme-3M)	GI50 (OVCAR-5)	GI50 (PC-3)	GI50 (RPMI-8226)	GI50 (SK-MEL-28)	GI50 (SR)	GI50 (SW-620)	GI50 (U-251)
CC(=O)OC(CN1CCN(c2ccccn2)CC1)Cn1sc2nc(C)cc(C)c2c1=O (stereo not drawn)	18.1 µM (inactive)	18.6 µM (inactive)	15.8 µM (inactive)	16.3 µM (inactive)	28.8 µM (inactive)	48.3 µM (inactive)	18.2 µM (inactive)	32.7 µM (inactive)	16.5 µM (inactive)	17.9 µM (inactive)	17.9 µM (inactive)	18.6 µM (inactive)	17.5 µM (inactive)	17.5 µM (inactive)	5.12 µM (inactive)	20 µM (inactive)	4.61 µM (inactive)	26.4 µM (inactive)	18.1 µM (inactive)
CCOC(=O)c1ccc(C(=O)/C(C#N)=C2\CCCN2)n1C	> 100 µM (inactive)	78.9 µM (inactive)	> 100 µM (inactive)	> 100 µM (inactive)	> 100 µM (inactive)		> 100 µM (inactive)	13.3 µM (inactive)	> 100 µM (inactive)	40.4 µM (inactive)	> 100 µM (inactive)	> 100 µM (inactive)	> 100 µM (inactive)	> 100 µM (inactive)	0.703 µM (active)	> 100 µM (inactive)	31 µM (inactive)	> 100 µM (inactive)	> 100 µM (inactive)
O=C(CCc1cc(O)cc(O)c1)NCCc1cc(O)cc(OCc2ccccc2)c1	> 100 µM (inactive)	29.6 µM (inactive)	48.3 µM (inactive)	35.7 µM (inactive)	43.6 µM (inactive)	53.1 µM (inactive)	59.3 µM (inactive)	36.1 µM (inactive)	35.8 µM (inactive)	32.6 µM (inactive)	29.8 µM (inactive)		63 µM (inactive)	37.8 µM (inactive)	35.8 µM (inactive)	54.8 µM (inactive)	30.5 µM (inactive)	72.1 µM (inactive)	41.8 µM (inactive)
CCOC(=O)NC(OC)(C(F)(F)F)C(F)(F)F	> 100 µM (inactive)	> 100 µM (inactive)	> 100 µM (inactive)	> 100 µM (inactive)	> 100 µM (inactive)	> 100 µM (inactive)	> 100 µM (inactive)	> 100 µM (inactive)	> 100 µM (inactive)	> 100 µM (inactive)	> 100 µM (inactive)	> 100 µM (inactive)		> 100 µM (inactive)	> 100 µM (inactive)	> 100 µM (inactive)	> 100 µM (inactive)	> 100 µM (inactive)	> 100 µM (inactive)
Nc1ccc2c(c1)NC(=O)[C@@H]1CCCN1C2=O	> 100 µM (inactive)	> 100 µM (inactive)	> 100 µM (inactive)	> 100 µM (inactive)	> 100 µM (inactive)	> 100 µM (inactive)	> 100 µM (inactive)	> 100 µM (inactive)	> 100 µM (inactive)	> 100 µM (inactive)	> 100 µM (inactive)		> 100 µM (inactive)	> 100 µM (inactive)	> 100 µM (inactive)	> 100 µM (inactive)	> 100 µM (inactive)	> 100 µM (inactive)	> 100 µM (inactive)
C=CC1CCC[N+]1(CC(=O)OCC)Cc1ccccc1 (stereo not drawn)	> 100 µM (inactive)	> 100 µM (inactive)	> 100 µM (inactive)	> 100 µM (inactive)	> 100 µM (inactive)	> 100 µM (inactive)	> 100 µM (inactive)	> 100 µM (inactive)	> 100 µM (inactive)	> 100 µM (inactive)	> 100 µM (inactive)	> 100 µM (inactive)	> 100 µM (inactive)	> 100 µM (inactive)	> 100 µM (inactive)	> 100 µM (inactive)	> 100 µM (inactive)	> 100 µM (inactive)	> 100 µM (inactive)
CCOC(=O)c1cc(C)n(CN(CCO)Cn2nc(C(=O)OCC)cc2C)n1	> 100 µM (inactive)	27.5 µM (inactive)	20.5 µM (inactive)	18.3 µM (inactive)	25.9 µM (inactive)	24.8 µM (inactive)	29.4 µM (inactive)	26.9 µM (inactive)	18.5 µM (inactive)	28.2 µM (inactive)	27.9 µM (inactive)	27.1 µM (inactive)	19.5 µM (inactive)	28.4 µM (inactive)	19.9 µM (inactive)	40.7 µM (inactive)	28.6 µM (inactive)	28.3 µM (inactive)	35.3 µM (inactive)
COc1cc(OC)c2nc(C)c3c(c2c1)NCC3	13.7 µM (inactive)	14.4 µM (inactive)	4.68 µM (inactive)	3.47 µM (inactive)	7.74 µM (inactive)	13.3 µM (inactive)	9.75 µM (inactive)	0.776 µM (active)	11.6 µM (inactive)	3.94 µM (inactive)	7.76 µM (inactive)	10.4 µM (inactive)	6.28 µM (inactive)	6.03 µM (inactive)		15.2 µM (inactive)	2.89 µM (inactive)	4.42 µM (inactive)	9.35 µM (inactive)
Cc1ccc(C2SCC(=O)N2c2ccc(-c3ccc(-n4c(-c5ccccc5)nc5ccccc5c4=O)cc3)cc2)cc1 (stereo not drawn)	> 100 µM (inactive)	60.7 µM (inactive)	81.8 µM (inactive)		> 100 µM (inactive)	35 µM (inactive)	25.3 µM (inactive)	64.7 µM (inactive)	85.7 µM (inactive)	> 100 µM (inactive)	92.9 µM (inactive)	> 100 µM (inactive)	> 100 µM (inactive)	42.4 µM (inactive)	> 100 µM (inactive)	> 100 µM (inactive)	36.4 µM (inactive)	> 100 µM (inactive)	73.3 µM (inactive)
CCOC(=O)c1[nH]cc(C)c1-c1ccc2c(-c3ccccc3)nc3ccccc3n12	2.84 µM (inactive)	5.13 µM (inactive)	2.86 µM (inactive)	3.19 µM (inactive)	5.42 µM (inactive)	3.52 µM (inactive)	3.66 µM (inactive)	3.34 µM (inactive)	5.55 µM (inactive)	2.1 µM (inactive)	3.13 µM (inactive)		15.8 µM (inactive)	3.01 µM (inactive)		3.89 µM (inactive)	1.62 µM (inactive)	3.13 µM (inactive)	3.01 µM (inactive)
O=C(O)c1ccc(NNc2cc(=O)[nH]c(=O)[nH]2)cc1	> 100 µM (inactive)	> 100 µM (inactive)	> 100 µM (inactive)	> 100 µM (inactive)	> 100 µM (inactive)		> 100 µM (inactive)	> 100 µM (inactive)	> 100 µM (inactive)	> 100 µM (inactive)	> 100 µM (inactive)	> 100 µM (inactive)	> 100 µM (inactive)	24.4 µM (inactive)	> 100 µM (inactive)	> 100 µM (inactive)	> 100 µM (inactive)	> 100 µM (inactive)	> 100 µM (inactive)
CC(C)c1cc(=O)[nH]c2cc(N)ccc12	> 100 µM (inactive)	> 100 µM (inactive)	> 100 µM (inactive)	> 100 µM (inactive)	> 100 µM (inactive)	> 100 µM (inactive)	> 100 µM (inactive)	> 100 µM (inactive)	> 100 µM (inactive)	> 100 µM (inactive)	> 100 µM (inactive)		> 100 µM (inactive)	> 100 µM (inactive)	> 100 µM (inactive)	> 100 µM (inactive)	> 100 µM (inactive)	> 100 µM (inactive)	> 100 µM (inactive)
O=[N+]([O-])/C=C/c1cc(Cl)c(/C=C/[N+](=O)[O-])cc1Cl	5.89 µM (inactive)	1.57 µM (inactive)	1.95 µM (inactive)	1.12 µM (active)	3.77 µM (inactive)	2.55 µM (inactive)	3.29 µM (inactive)		1.87 µM (inactive)	2.89 µM (inactive)	1.86 µM (inactive)	1.91 µM (inactive)	1.52 µM (inactive)	2.55 µM (inactive)	1.25 µM (inactive)	1.68 µM (inactive)	0.225 µM (active)	1.03 µM (active)	1.63 µM (inactive)
O=C(/C=C/c1ccc(O)c(O)c1)OCCCOC(=O)/C=C/c1ccc(O)c(O)c1	52.5 µM (inactive)	25.3 µM (inactive)	28.9 µM (inactive)	18.2 µM (inactive)	11.7 µM (inactive)	20 µM (inactive)	13.3 µM (inactive)	22.3 µM (inactive)	19.2 µM (inactive)	30.6 µM (inactive)	62.1 µM (inactive)	43.3 µM (inactive)	27.4 µM (inactive)	30.5 µM (inactive)	17.4 µM (inactive)	36.6 µM (inactive)	17.2 µM (inactive)	11.4 µM (inactive)	23.5 µM (inactive)
Cc1ncc([N+](=O)[O-])n1CCN(C)C(=O)CCCn1ccnc1[N+](=O)[O-]	> 100 µM (inactive)	> 100 µM (inactive)	> 100 µM (inactive)	> 100 µM (inactive)	> 100 µM (inactive)		> 100 µM (inactive)	> 100 µM (inactive)	> 100 µM (inactive)	> 100 µM (inactive)	> 100 µM (inactive)	> 100 µM (inactive)	> 100 µM (inactive)	> 100 µM (inactive)	> 100 µM (inactive)	> 100 µM (inactive)	> 100 µM (inactive)	> 100 µM (inactive)	> 100 µM (inactive)
